Source: ChEMBL document CHEMBL5331107 (J Med Chem, 2023)

How the values were obtained:
[1] = tested on: Human immunodeficiency virus 1; assay: Antiviral activity against NNRTI-resistant HIV-1 harboring L100I mutant infected in human MT4 cells assessed as protection against virus-induced cytopathic effect incubated for 5 days by MTT assay; type: functional, organism-based; settings: Human immunodeficiency virus 1, MT4, 120 h
[2] = in vitro; settings: human, MT4 cells
Description: Selectivity index, ratio of CC50 for cytotoxicity against human MT4 cells to EC50 for antiviral activity against NNRTI-resistant HIV-1 harboring Y181C mutant infected in human MT4 cells

[3] = in vitro; settings: human, MT4 cells; remark: listed apart in the source
Description: Selectivity index, ratio of CC50 for cytotoxicity against human MT4 cells to EC50 for antiviral activity against NNRTI-resistant HIV-1 harboring Y188L mutant infected in human MT4 cells

[4] = tested on: Human immunodeficiency virus 1; assay: microbe, parasite or virus in culture; settings: Human immunodeficiency virus 1, IIIB, MT4, 120 h
Description: Antiviral activity against wild type HIV-1 IIIB infected in human MT4 cells assessed as protection against virus-induced cytopathic effect incubated for 5 days by MTT assay

[5] = tested on: Human immunodeficiency virus 1; type: functional, organism-based; settings: Human immunodeficiency virus 1, MT4, 120 h
[6] = Cytotoxicity against human MT4 cells assessed as reduction in cell viability incubated for 5 days by MTT assay; type: toxicity, cell-based; settings: time 5 day
[7] = in vitro; settings: human, MT4 cells; remark: listed apart in the source
Description: Selectivity index, ratio of CC50 for cytotoxicity against human MT4 cells to EC50 for antiviral activity against NNRTI-resistant HIV-1 harboring F227L and V106A mutant infected in human MT4 cells

[8] = tested on: Human immunodeficiency virus 1; type: functional, organism-based; settings: Human immunodeficiency virus 1, MT4, 120 h; remark: listed apart in the source
[9] = tested on: Human immunodeficiency virus 1; type: functional, organism-based; settings: Human immunodeficiency virus 1, MT4, 120 h; remark: listed apart in the source
[10] = in vitro; settings: human, MT4 cells; remark: listed apart in the source
Description: Selectivity index, ratio of CC50 for cytotoxicity against human MT4 cells to EC50 for antiviral activity against NNRTI-resistant HIV-1 harboring E138K mutant infected in human MT4 cells

[11] = in vitro; settings: human, MT4 cells; remark: listed apart in the source
Description: Selectivity index, ratio of CC50 for cytotoxicity against human MT4 cells to EC50 for antiviral activity against NNRTI-resistant HIV-1 harboring K103N and Y181C mutant infected in human MT4 cells

[12] = in vitro; settings: human, MT4 cells; remark: listed apart in the source
Description: Selectivity index, ratio of CC50 for cytotoxicity against human MT4 cells to EC50 for antiviral activity against NNRTI-resistant HIV-1 harboring K103N mutant infected in human MT4 cells

[13] = tested on: Human immunodeficiency virus 1; assay: Antiviral activity against NNRTI-resistant HIV-1 harboring E138K mutant infected in human MT4 cells assessed as protection against virus-induced cytopathic effect incubated for 5 days by MTT assay; type: functional, organism-based; settings: Human immunodeficiency virus 1, MT4, 120 h
[14] = tested on: Human immunodeficiency virus 1; assay: Antiviral activity against NNRTI-resistant HIV-1 harboring K103N mutant infected in human MT4 cells assessed as protection against virus-induced cytopathic effect incubated for 5 days by MTT assay; type: functional, organism-based; settings: Human immunodeficiency virus 1, MT4, 120 h
[15] = molecular target: Human immunodeficiency virus type 1 reverse transcriptase (Human immunodeficiency virus 1, UniProt Q72547); assay: Inhibition of HIV-1 reverse transcriptase assessed as assessed as reduction of biotin-dUTP incorporation into […] incubated for 1 hrs by ELISA analysis
[16] = tested on: Human immunodeficiency virus 1; assay: Antiviral activity against NNRTI-resistant HIV-1 harboring F227L and V106A double mutant infected in human MT4 cells assessed as protection against virus-induced cytopathic effect incubated for 5 days by MTT assay; type: functional, organism-based; settings: Human immunodeficiency virus 1, MT4, 120 h
[17] = in vitro; settings: human, MT4 cells; remark: listed apart in the source
Description: Selectivity index, ratio of CC50 for cytotoxicity against human MT4 cells to EC50 for antiviral activity against NNRTI-resistant HIV-1 harboring L100I mutant infected in human MT4 cells

[18] = in vitro; settings: human, MT4 cells; remark: listed apart in the source
Description: Selectivity index, ratio of CC50 for cytotoxicity against human MT4 cells to EC50 for antiviral activity against wildtype HIV-1 IIIB infected in human MT4 cells

SMILES	EC50 [1]	selectivity ratio [2]	selectivity ratio [3]	EC50 [4]	EC50 [5]	CC50 at 120 h [6]	selectivity ratio [7]	EC50 [8]	EC50 [9]	selectivity ratio [10]	selectivity ratio [11]	selectivity ratio [12]	EC50 [13]	EC50 [14]	IC50 [15]	EC50 [16]	selectivity ratio [17]	selectivity ratio [18]
Cc1cc(C#N)cc(C)c1Oc1nc(Nc2ccc(C#N)cc2)nc2c1CN(C(=O)c1ccc([N+](=O)[O-])cc1)CC2	120 nM	> 4740	> 5130	7.65 nM	48.3 nM	> 229 µM	> 848	44.6 nM	156 nM	> 6960	> 1470	> 23400	32.9 nM	9.81 nM	146 nM	270 nM	> 1910	> 30000
Cc1cc(C#N)cc(C)c1Oc1nc(Nc2ccc(C#N)cc2)nc2c1CN(C(=O)c1ccc(C#N)cc1)CC2				10.3 nM		> 238 µM				> 5090		> 14700	46.8 nM	16.2 nM	154 nM			> 23000
Cc1cc(C#N)cc(C)c1Oc1nc(Nc2ccc(C#N)cc2)nc2c1CN(C(=O)c1cccc(C#N)c1)CC2				7.77 nM		> 238 µM				> 5950		> 22800	40 nM	10.4 nM	161 nM			> 30600
Cc1cc(C#N)cc(C)c1Oc1nc(Nc2ccc(C#N)cc2)nc2c1CN(Cc1ccc(S(N)(=O)=O)cc1)CC2	72.6 nM	> 6430	> 6940	6.62 nM	34.4 nM	> 221 µM	> 1640	31.8 nM	89.9 nM	> 5570	> 2460	> 29200	39.7 nM	7.56 nM	126 nM	135 nM	> 3040	> 33400
C=CC(=O)N1CCc2nc(Nc3ccc(C#N)cc3)nc(Oc3c(C)cc(C#N)cc3C)c2C1	44.2 nM	235	220	8.12 nM	47.4 nM	11.1 µM	83	50.7 nM	138 nM	246	81	956	45.3 nM	11.7 nM	71 nM	134 nM	252	1370
Cc1cc(C#N)cc(C)c1Oc1nc(Nc2ccc(C#N)cc2)nc2c1CN(C(=O)c1ccc(C(F)(F)F)cc1)CC2				28.8 nM		> 220 µM				> 1670		> 5000	132 nM	44 nM	297 nM			> 7640
O=C1Nc2ccc(Cl)cc2[C@@](C#CC2CC2)(C(F)(F)F)O1 [EFAVIRENZ]	753 nM				7.87 nM	> 6.35 µM		425 nM	433 nM				6.82 nM	133 nM				
COc1cccc(C(=O)N2CCc3nc(Nc4ccc(C#N)cc4)nc(Oc4c(C)cc(C#N)cc4C)c3C2)c1				7.32 nM		4.78 µM				144		597	33.3 nM	8.01 nM	180 nM			653
COc1ccc(C(=O)N2CCc3nc(Nc4ccc(C#N)cc4)nc(Oc4c(C)cc(C#N)cc4C)c3C2)cc1				6.76 nM		32.4 µM				682		3390	47.5 nM	9.56 nM	211 nM			4800
Cc1cc(C#N)cc(C)c1Oc1nc(Nc2ccc(C#N)cc2)nc2c1CN(Cc1ccccc1)CC2				19.1 nM		52.1 µM				507		1890	103 nM	27.6 nM	225 nM			2740
Cc1cc(C#N)cc(C)c1Oc1nc(Nc2ccc(C#N)cc2)nc2c1CN(C(=O)c1cccc([N+](=O)[O-])c1)CC2				8 nM		> 229 µM				> 5330		> 32100	43 nM	7.15 nM	169 nM			> 28600
Cc1cc(C#N)cc(C)c1Oc1nc(Nc2ccc(C#N)cc2)nc2c1CN(Cc1ccc(B(O)O)cc1)CC2				14.9 nM		11.8 µM				211		758	55.7 nM	15.5 nM	180 nM			787
Cc1cc(C#N)cc(C)c1Oc1nc(Nc2ccc(C#N)cc2)nc2c1CN(C(=O)c1cccc(F)c1)CC2				9.12 nM		5.02 µM				152		529	33 nM	9.5 nM	207 nM			551
Cc1cc(C#N)cc(C)c1Oc1nc(Nc2ccc(C#N)cc2)nc2c1CN(C(=O)c1ccc(F)cc1)CC2				8.84 nM		6.51 µM				270		726	24.1 nM	8.97 nM	154 nM			736
COC(=O)c1ccc(C(=O)N2CCc3nc(Nc4ccc(C#N)cc4)nc(Oc4c(C)cc(C#N)cc4C)c3C2)cc1				21.1 nM		> 224 µM				> 817		> 4890	274 nM	45.8 nM	237 nM			> 10600
Cc1ccnc2c1NC(=O)c1cccnc1N2C1CC1 [NEVIRAPINE]	2290 nM			155 nM	8950 nM	> 15 µM		> 15000 nM	> 15000 nM				205 nM	7790 nM		> 15000 nM		
Cc1cc(C#N)cc(C)c1Oc1nc(Nc2ccc(C#N)cc2)nc2c1CN(S(=O)(=O)N(C)C)CC2				7.94 nM		62.8 µM				2060		7670	30.5 nM	8.19 nM	84 nM			7910
Cc1cc(C#N)cc(C)c1Oc1nc(Nc2ccc(C#N)cc2)nc2c1CN(C(=O)c1cccc(C(F)(F)F)c1)CC2				27.7 nM		> 220 µM				> 1450		> 6090	152 nM	36.1 nM	313 nM			> 7930
